For 1 molecule, Effective concentration and Ki results are on record in ChEMBL document CHEMBL1126055, “A nonpromoting phorbol from the samoan medicinal plant Homalanthus nutans inhibits cell killing by HIV-1” (J Med Chem, 1992).

In general, pKi refers to −log10 of the Ki, conventionally taken in molar units.

Test [1] concerns the target Epidermal growth factor receptor (Mus musculus) (UniProt Q01279). Briefly: Inhibition of epidermal growth factor binding in C3H10T1/2 cells. Format: functional, cell-based. Particulars: C3H 10T1/2.
A short description of test [2]: Displacement of [3H]PDBu from Protein kinase C in vitro. Also noted: species or system Mus musculus. (In general: Displacement assays read how much labelled ligand stays bound in the presence of the test substance.)
For a further test, the system named is C3H 10T1/2. In words: Inhibition of arachidonic acid metabolite release in C3H10T1/2 cells. Format: functional, Mus musculus.

pKi: −log10 of the molar value.

Sequence of Epidermal growth factor receptor (Mus musculus) (Q01279 whole entry): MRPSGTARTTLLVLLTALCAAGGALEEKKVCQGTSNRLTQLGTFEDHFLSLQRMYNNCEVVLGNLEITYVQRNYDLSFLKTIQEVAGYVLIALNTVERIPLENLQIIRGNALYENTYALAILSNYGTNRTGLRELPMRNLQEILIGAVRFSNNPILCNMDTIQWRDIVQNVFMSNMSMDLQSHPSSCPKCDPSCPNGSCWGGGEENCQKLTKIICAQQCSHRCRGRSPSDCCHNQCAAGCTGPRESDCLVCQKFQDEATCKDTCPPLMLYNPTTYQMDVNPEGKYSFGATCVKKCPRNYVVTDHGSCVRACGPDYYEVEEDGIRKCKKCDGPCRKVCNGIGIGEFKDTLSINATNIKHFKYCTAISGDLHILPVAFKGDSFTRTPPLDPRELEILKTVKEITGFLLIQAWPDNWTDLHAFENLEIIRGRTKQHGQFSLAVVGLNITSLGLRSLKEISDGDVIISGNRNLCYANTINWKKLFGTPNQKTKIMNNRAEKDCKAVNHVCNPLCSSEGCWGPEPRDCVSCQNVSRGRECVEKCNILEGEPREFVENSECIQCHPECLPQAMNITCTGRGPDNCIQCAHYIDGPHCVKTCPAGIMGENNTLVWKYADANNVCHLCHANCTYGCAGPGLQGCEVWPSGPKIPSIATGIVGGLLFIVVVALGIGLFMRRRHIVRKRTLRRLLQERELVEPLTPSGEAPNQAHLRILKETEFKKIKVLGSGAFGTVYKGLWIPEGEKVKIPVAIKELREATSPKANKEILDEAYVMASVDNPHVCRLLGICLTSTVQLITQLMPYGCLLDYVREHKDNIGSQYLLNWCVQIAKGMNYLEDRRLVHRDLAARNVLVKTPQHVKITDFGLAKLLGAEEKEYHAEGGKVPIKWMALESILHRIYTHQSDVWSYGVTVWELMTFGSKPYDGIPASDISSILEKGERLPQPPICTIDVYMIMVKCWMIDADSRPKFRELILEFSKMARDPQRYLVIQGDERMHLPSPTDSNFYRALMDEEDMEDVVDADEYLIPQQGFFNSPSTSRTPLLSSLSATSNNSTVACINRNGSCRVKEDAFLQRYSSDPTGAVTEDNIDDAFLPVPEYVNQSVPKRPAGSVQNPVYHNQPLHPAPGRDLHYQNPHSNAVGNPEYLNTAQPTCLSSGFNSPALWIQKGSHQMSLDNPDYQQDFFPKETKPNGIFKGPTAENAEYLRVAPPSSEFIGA

As for `CC(=O)O[C@@]12C[C@@H](C)[C@@]3(O)[C@@H](C=C(CO)C[C@]4(O)C(=O)C(C)=C[C@@H]34)[C@@H]1C2(C)C` [PROSTRATIN], the Effective concentration in test [1] was determined as 220 nM; with C3H 10T1/2 it was 1100 nM. Also, in test [2], the pKi is 7.90.
